From paper PMC5666424, “Marine-Derived 2-Aminoimidazolone Alkaloids. Leucettamine B-Related Polyandrocarpamines Inhibit Mammalian and Protozoan DYRK & CLK Kinases” (Marine Drugs, 2017)

Tests used:
Test in all cases: KinomeScan
Type in all cases: binding
Details in all cases: 1 μM
ANKK1 = target: T1, ANKK1 (Homo sapiens, UniProt Q8NFD2)
T1 construct: purchased DiscoverX (KINOMEscan)

CAMK2B = target: T2, CAMK2B (Homo sapiens, UniProt Q13554)
T2 construct: purchased DiscoverX (KINOMEscan)

CAMK4 = target: T3, CAMK4 (Homo sapiens, UniProt Q16566)
T3 construct: purchased DiscoverX (KINOMEscan)

CDC2L1 = target: T4, CDC2L1 (Homo sapiens, UniProt P21127)
T4 construct: purchased DiscoverX (KINOMEscan)

CDK3 = target: T5, CDK3 (Homo sapiens, UniProt Q00526)
T5 construct: purchased DiscoverX (KINOMEscan)

CSNK1E = target: T6, CSNK1E (Homo sapiens, UniProt P49674)
T6 construct: purchased DiscoverX (KINOMEscan)

DLK = target: T7, DLK (Homo sapiens, UniProt Q12852)
T7 construct: purchased DiscoverX (KINOMEscan)

DMPK2 = target: T8, DMPK2 (Homo sapiens, UniProt Q6DT37)
T8 construct: purchased DiscoverX (KINOMEscan)

DYRK2 = target: T9, DYRK2 (Homo sapiens, UniProt Q92630)
T9 sequence (Q92630 1-601): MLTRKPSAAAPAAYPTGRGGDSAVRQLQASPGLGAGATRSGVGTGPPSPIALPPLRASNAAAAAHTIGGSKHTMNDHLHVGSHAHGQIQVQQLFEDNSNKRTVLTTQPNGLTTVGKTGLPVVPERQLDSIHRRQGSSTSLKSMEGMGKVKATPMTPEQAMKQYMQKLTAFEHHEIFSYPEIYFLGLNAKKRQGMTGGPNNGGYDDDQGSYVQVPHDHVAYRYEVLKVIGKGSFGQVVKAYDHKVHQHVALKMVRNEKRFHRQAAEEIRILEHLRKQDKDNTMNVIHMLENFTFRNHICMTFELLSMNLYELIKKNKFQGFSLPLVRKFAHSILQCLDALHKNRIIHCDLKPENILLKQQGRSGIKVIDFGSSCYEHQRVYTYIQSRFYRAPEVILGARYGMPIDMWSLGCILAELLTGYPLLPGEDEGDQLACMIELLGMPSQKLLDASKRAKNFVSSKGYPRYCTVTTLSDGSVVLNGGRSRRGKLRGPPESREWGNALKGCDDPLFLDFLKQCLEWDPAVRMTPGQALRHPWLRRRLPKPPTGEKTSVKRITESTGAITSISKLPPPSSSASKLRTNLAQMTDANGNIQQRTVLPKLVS

EGFR = target: T10, EGFR (Homo sapiens, UniProt P00533)
T10 construct: purchased DiscoverX (KINOMEscan)

EGFR(G719S) = target: T11, EGFR(G719S) (Homo sapiens, UniProt P00533, G719S)
T11 construct: purchased DiscoverX (KINOMEscan)

[1] = target: T12, EGFR(L747-S752del, P753S) (Homo sapiens, UniProt P00533, DEL747-752/P753S)
T12 construct: purchased DiscoverX (KINOMEscan)

EPHA2 = target: T13, EPHA2 (Homo sapiens, UniProt P29317)
T13 construct: purchased DiscoverX (KINOMEscan)

ERK8 = target: T14, ERK8 (Homo sapiens, UniProt Q8TD08)
T14 construct: purchased DiscoverX (KINOMEscan)

FGFR4 = target: T15, FGFR4 (Homo sapiens, UniProt P22455)
T15 construct: purchased DiscoverX (KINOMEscan)

GRK1 = target: T16, GRK1 (Homo sapiens, UniProt Q15835)
T16 construct: purchased DiscoverX (KINOMEscan)

IKK-alpha = target: T17, IKK-alpha (Homo sapiens, UniProt O15111)
T17 construct: purchased DiscoverX (KINOMEscan)

[2] = target: T18, JAK1(JH2domain-pseudokinase) (Homo sapiens, UniProt P23458)
T18 construct: JAK1(JH2domain-pseudokinase); purchased DiscoverX (KINOMEscan)

KIT(V559D,T670I) = target: T19, KIT(V559D,T670I) (Homo sapiens, UniProt P10721, T670I/V559D)
T19 construct: purchased DiscoverX (KINOMEscan)

LRRK2 = target: T20, LRRK2 (Homo sapiens, UniProt Q5S007)
T20 construct: purchased DiscoverX (KINOMEscan)

MAK = target: T21, MAK (Homo sapiens, UniProt P20794)
T21 construct: purchased DiscoverX (KINOMEscan)

MST3 = target: T22, MST3 (Homo sapiens, UniProt Q9Y6E0)
T22 construct: purchased DiscoverX (KINOMEscan)

MST4 = target: T23, MST4 (Homo sapiens, UniProt Q9P289)
T23 construct: purchased DiscoverX (KINOMEscan)

NEK2 = target: T24, NEK2 (Homo sapiens, UniProt P51955)
T24 construct: purchased DiscoverX (KINOMEscan)

YES = target: T25, YES (Homo sapiens, UniProt P07947)
T25 construct: purchased DiscoverX (KINOMEscan)

YSK4 = target: T26, YSK4 (Homo sapiens, UniProt Q56UN5)
T26 construct: purchased DiscoverX (KINOMEscan)

ZAK = target: T27, ZAK (Homo sapiens, UniProt Q9NYL2)
T27 construct: purchased DiscoverX (KINOMEscan)

ZAP70 = target: T28, ZAP70 (Homo sapiens, UniProt P43403)
T28 construct: purchased DiscoverX (KINOMEscan)

p38-alpha = target: T29, p38-alpha (Homo sapiens, UniProt Q16539)
T29 construct: purchased DiscoverX (KINOMEscan)

T22 sequence (Q9Y6E0 whole entry): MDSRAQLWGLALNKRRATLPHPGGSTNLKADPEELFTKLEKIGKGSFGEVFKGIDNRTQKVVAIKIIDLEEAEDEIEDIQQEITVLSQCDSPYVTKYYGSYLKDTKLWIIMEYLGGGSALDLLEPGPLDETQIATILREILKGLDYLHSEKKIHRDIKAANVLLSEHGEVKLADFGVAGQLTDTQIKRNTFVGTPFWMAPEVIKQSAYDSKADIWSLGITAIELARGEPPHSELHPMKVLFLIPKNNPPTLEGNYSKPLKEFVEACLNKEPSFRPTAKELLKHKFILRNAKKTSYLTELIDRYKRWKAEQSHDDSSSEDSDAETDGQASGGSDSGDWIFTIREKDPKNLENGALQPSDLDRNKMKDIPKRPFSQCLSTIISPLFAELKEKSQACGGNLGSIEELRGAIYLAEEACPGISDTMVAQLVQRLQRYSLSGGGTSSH
T6 sequence (P49674 whole entry): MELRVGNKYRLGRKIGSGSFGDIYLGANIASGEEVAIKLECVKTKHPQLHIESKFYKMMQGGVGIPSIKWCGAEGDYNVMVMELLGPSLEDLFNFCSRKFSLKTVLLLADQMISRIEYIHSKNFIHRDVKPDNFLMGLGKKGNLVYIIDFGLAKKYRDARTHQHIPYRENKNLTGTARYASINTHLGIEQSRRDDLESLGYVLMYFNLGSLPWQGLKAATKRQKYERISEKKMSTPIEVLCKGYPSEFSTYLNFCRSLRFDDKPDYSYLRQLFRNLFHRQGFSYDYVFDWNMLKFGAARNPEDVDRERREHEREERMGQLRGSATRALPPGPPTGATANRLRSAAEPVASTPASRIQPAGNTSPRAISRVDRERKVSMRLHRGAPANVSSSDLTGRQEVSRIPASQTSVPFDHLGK
T24 sequence (P51955 whole entry): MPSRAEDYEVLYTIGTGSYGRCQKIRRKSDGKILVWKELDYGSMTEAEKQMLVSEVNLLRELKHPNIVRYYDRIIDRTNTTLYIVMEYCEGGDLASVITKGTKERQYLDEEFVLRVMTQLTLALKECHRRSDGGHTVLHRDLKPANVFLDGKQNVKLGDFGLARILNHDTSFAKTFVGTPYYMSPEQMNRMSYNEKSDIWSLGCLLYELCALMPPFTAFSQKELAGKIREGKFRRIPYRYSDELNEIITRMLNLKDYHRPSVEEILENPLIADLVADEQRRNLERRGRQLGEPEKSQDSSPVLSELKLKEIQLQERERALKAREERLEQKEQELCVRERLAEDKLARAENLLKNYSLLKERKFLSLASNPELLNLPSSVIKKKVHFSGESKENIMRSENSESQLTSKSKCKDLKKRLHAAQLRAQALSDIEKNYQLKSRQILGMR
T1 sequence (Q8NFD2 whole entry): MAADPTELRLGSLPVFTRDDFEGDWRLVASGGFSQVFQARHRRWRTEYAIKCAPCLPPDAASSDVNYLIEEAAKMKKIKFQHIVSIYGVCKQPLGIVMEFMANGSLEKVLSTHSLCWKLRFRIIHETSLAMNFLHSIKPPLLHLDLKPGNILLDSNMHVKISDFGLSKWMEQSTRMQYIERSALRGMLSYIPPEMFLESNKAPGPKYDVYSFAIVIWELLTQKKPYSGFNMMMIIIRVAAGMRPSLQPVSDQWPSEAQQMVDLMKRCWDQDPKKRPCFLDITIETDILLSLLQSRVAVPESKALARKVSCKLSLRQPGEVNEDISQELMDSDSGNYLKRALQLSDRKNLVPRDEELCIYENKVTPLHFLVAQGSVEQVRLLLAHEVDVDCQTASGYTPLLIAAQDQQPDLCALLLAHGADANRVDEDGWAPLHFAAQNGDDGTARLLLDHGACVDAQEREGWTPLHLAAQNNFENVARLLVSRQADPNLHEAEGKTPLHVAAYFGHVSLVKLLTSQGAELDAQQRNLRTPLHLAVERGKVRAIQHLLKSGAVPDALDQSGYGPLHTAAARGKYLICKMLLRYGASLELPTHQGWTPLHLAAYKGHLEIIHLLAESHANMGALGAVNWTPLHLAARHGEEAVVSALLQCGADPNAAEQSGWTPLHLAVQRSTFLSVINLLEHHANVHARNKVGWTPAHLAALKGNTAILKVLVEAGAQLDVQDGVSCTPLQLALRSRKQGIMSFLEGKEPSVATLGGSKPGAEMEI
T15 sequence (P22455 22-802): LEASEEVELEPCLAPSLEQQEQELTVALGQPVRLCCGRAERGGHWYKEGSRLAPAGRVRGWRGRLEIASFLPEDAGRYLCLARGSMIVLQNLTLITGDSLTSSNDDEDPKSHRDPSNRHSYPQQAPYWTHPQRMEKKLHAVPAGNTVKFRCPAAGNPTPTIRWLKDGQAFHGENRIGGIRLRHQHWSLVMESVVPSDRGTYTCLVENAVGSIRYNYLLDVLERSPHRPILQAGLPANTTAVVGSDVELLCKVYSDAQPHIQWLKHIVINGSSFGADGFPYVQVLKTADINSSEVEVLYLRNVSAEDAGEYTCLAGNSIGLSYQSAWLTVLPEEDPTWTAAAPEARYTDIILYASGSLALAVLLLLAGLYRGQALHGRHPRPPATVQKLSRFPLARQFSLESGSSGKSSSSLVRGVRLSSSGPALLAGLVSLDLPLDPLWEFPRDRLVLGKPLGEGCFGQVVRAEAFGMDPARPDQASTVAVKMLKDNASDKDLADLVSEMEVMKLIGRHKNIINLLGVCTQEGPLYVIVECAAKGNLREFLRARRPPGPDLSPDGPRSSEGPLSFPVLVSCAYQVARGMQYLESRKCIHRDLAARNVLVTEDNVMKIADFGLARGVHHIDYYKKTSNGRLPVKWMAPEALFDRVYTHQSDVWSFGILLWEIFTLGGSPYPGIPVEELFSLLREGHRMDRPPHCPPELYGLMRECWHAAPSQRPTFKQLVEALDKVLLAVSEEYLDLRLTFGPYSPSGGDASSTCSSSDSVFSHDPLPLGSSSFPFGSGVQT
T25 sequence (P07947 whole entry): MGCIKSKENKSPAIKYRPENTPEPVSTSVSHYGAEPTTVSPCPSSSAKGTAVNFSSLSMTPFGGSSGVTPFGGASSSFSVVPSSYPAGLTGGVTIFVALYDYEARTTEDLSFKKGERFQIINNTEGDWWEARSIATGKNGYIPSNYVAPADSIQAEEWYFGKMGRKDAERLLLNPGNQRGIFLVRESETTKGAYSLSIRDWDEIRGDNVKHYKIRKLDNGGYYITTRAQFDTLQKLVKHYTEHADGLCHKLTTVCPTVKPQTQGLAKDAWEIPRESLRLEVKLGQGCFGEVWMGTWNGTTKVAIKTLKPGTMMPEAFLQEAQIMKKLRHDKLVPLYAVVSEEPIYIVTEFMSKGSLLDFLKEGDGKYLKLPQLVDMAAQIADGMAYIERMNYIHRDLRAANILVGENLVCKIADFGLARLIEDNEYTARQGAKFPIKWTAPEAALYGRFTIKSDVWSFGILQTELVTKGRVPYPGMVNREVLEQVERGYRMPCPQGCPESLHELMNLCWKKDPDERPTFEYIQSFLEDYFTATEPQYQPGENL
T8 sequence (Q6DT37 whole entry): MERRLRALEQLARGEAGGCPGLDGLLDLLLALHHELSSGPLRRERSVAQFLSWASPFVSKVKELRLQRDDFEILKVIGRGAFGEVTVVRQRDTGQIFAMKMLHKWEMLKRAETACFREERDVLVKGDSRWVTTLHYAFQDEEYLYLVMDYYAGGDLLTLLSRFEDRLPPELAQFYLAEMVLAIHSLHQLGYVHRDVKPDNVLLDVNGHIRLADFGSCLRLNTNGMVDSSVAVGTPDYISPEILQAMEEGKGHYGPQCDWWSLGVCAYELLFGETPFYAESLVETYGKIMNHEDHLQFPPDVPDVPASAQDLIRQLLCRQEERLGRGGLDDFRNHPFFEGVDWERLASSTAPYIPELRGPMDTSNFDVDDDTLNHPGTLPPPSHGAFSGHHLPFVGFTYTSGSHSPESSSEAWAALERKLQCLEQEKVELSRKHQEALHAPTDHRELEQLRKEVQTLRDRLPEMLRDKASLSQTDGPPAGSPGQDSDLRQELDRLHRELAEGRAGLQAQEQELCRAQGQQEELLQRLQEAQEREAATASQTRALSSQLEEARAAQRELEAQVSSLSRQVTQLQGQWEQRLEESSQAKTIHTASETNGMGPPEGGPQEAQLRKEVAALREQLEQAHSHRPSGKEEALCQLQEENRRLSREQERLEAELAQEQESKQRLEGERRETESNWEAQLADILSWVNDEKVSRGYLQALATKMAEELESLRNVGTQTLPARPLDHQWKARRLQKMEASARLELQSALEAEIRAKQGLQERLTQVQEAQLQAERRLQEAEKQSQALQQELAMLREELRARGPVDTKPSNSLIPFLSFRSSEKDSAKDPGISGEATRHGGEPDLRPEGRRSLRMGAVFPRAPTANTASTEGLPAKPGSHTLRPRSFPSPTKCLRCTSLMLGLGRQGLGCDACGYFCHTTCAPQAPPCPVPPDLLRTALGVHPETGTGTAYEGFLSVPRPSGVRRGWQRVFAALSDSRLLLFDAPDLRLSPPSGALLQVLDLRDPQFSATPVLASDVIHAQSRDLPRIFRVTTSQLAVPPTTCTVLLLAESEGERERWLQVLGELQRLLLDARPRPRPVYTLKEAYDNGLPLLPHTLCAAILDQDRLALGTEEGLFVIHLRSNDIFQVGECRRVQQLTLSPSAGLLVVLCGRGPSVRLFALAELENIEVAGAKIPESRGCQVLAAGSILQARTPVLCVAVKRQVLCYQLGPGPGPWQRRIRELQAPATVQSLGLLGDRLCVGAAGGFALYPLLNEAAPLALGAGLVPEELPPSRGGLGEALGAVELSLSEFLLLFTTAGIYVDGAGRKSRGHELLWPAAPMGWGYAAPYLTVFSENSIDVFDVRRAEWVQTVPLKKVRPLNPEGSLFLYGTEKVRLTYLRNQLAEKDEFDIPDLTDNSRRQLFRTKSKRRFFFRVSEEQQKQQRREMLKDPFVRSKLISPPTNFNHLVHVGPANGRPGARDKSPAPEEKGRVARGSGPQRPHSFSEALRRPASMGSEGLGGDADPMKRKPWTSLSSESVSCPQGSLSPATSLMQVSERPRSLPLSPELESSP

COc1cc(/C=C2\N=C(N)NC2=O)ccc1O [Polyandrocarpamine A]
Score (ANKK1): 100
Score (CAMK2B): 90
Score (CAMK4): 94
Score (CDC2L1): 100
Score (CDK3): 100
Score (CSNK1E): 87
Score (DLK): 100
Score (DMPK2): 99
Score (DYRK2): 24
Score (EGFR): 99
Score (EGFR(G719S)): 100
Score [1]: 100
Score (EPHA2): 100
Score (ERK8): 67
Score (FGFR4): 98
Score (GRK1): 100
Score (IKK-alpha): 100
Score [2]: 92
Score (KIT(V559D,T670I)): 85
Score (LRRK2): 100
Score (MAK): 91
Score (MST3): 100
Score (MST4): 100
Score (NEK2): 100
Score (YES): 100
Score (YSK4): 100
Score (ZAK): 95
Score (ZAP70): 100
Score (p38-alpha): 100
